Residues, ends and D or L forms follow the SMILES beside them. *: point of attachment. Cbz = O=C(OCc1ccccc1)*
Key:
[1] = system: BMP- and TGFß-relative R-Smads; assay: Immunoblot of BMP- and TGFß-relative R-Smads in HeLa cells (TGFß or FCS stimulation); type: cell-based, human; details: 24h, E738 (1µM), Bio (5µM), DM (1µM), Repsox (10µM); for P- and pan-Smads (R-Smads): TGFß (20ng/mL)
Smad1/5/8 = assay: Immunoblot of p-Smad1/5/8 and pan-Smad1/5/8 in HeLa cells; type: cell-based, human
[2] = system: mono-, di- and poly-ubiquitins; assay: Immunoblot of ubiquitins in HeLa cells; type: cell-based, human; details: BMP-stimulated HeLa, 24h; MG132 5µM, E738 (1µM)
Method: Western blot:: Cell extracts were homogenized in Urea-Lysis buffer (1mM EDTA,0.5% Triton X-100), 5mM NaF, 6M Urea, 1mM Na3VO4, 10µg/mL Pepstatin, 100µM PMSF and 3µg/mL Aprotinin in PBS). Enhanced chemiluminescence (ECL) Western blot analysis was performed. 20-40µg of total protein was resolved on 10% SDS-PAGE gels and immunoblotted with specific antibodies. Primary antibodies were incubated at a 1:1,000 dilution in TBS (pH 7.5) with 0.1% Tween-20 and 5% BSA/nonfat milk with gentle agitation overnight at 4°C. The proper secondary antibodies were incubated in TBS (pH 7.5) with 5% BSA/nonfat milk and 0.1 % Tween-20 at a 1:5,000 dilution for 1 h at room temperature.
Ubiquitin-proteasome degradation system is the major route to protein degradation. To identify if indirubin-induced degradation is conducted by proteasome, we utilized MG132, a general proteasome inhibitor, to characterize the role of proteasome in degradation. We found 5µM MG132 was sufficient to rescue the E738 mediated Smad1/5/8 […] 24h after treatment (Fig. 5E and 5F). […] Thus we interpreted that E738 might be able to promote degradation of polymerased ubiquintins through activating the formation of complexes with certain substrates, speculatively like Smad1/2/3/5/8, leading to accelerate the recycling of mono-ubiquitin, while MG132 blocked the degradation of these complexes and arrest such recycling. […]

p38 = details: reported by Zhu et al.; cited from earlier work
[3] = BMP2 (100ng/mL), 24h, compound at 5µM

Cc1cccc(-c2[nH]ncc2-c2ccc3ncccc3n2)n1 [Repsox]
activation of both types of R-Smads ([1]; FCS 10%): only partly
P- and pan-Smads (R-Smads) [1]: inhibited TGFß-mediated activation of Smad3, but not Smad1/5/8 or total R-Smads protein

C[C@@H]1C[C@@H]([C@H](O)CC2CC(=O)NC(=O)C2)C(=O)[C@@H](C)C1 [CHX, cyclohexamide, reference compound]
signal of Smad1/5/8 (Smad1/5/8; BMP2, CHX (10µM), 24h): weaker signal of Smad1/5/8
influence on the E738 induced degradation of Smad1/5/8 (Smad1/5/8; BMP2, mixture of E738 (1µM) and CHX 10µM, 24h): no influence on the degradation

CC(C)C[C@@H](C=O)NC(=O)[C@H](CC(C)C)NC(=O)[C@H](CC(C)C)NC(=O)OCc1ccccc1 [MG132, reference compound] (Cbz-Leu-Leu-Leu-aldehyde)
mono-, di- and poly-ubiquitins [2]: significantly stabilized mono-, di- and poly-ubiquitins
concentration sufficient to rescue the E738 mediated Smad1/5/8 ubiquitination (Smad1/5/8; BMP, 24h after treatment): 5 µM
p-Smad1/5/8 (Smad1/5/8; BMP, MG (5µM) with/without E738): accumulation of p-Smad1/5/8 was observed

C[S+]([O-])c1ccc(-c2nc(-c3ccncc3)c(-c3ccc(F)cc3)[nH]2)cc1 (stereo not shown) [SB203580, reference compound]
level of pan Smad1/5/8 (Smad1/5/8; BMP, MAPK inhibitor alone or in combination with E738): neither alter the level of pan Smad1/5/8 alone, nor attenuate the E738-mediated degradation in combination with E738

O=C1Nc2cc(Br)ccc2/C1=C1/Nc2ccccc2/C1=N\O [BIO, 6-Bromo-indirubin-3'-oxim, reference compound]
P- and pan-Smads (R-Smads) [1]: attenuated effects
level of pan Smad1/5/8 (Smad1/5/8; [3]): slightly decreased pan-Smad1/5/8
phosphorylation (activation) of Smad1/5/8 (Smad1/5/8; [3]): clearly blocked the activation of Smad1/5/8

[Cl-].[Li+] [LiCl, reference compound]
BMP activated Smad1/5/8 and level of pan Smad1/5/8 (Smad1/5/8; BMP, LiCl (30mM), 24h): can attenuate BMP activated Smad1/5/8, but not change the level of pan Smad1/5/8

O=C1Nc2ccccc2/C1=C1/Nc2ccccc2/C1=N\O [E231, Indirubin-3'-oxim]
phosphorylation of p38 (p38): can stimulate the phosphorylation of p38
p-Smad1/5/8 at C-termini and pan-Smad1/5/8 levels (Smad1/5/8; BMP2 (100ng/mL), 24h, compound at 1µM): slightly decreased
level of pan Smad1/5/8 (Smad1/5/8; [3]): induced the reduction only partly
phosphorylation (activation) of Smad1/5/8 (Smad1/5/8; [3]): strongly blocked the phosphorylation

Reference: patent EP2518139A1, “Use of indirubin derivatives for producing pluripotent stem cells” (Universitätsklinikum Jena, priority 2011, dated 2012)
